pIC50: −log10 of the molar value. No end group written: not given here.

For data set [1], the system named is MDA 231 breast cancer cell line. As to the kind of experiment: Fluorometric microculture cytotoxicity assay (FMCA). The data set is classed as cell-based, human. As to conditions: MDA 231, FMCA 72 hr, cisplatin concentration; read-out: IC50 (95% confidence interval). The protocol: (§1) FaDu is grown in DMEM and 10% heat-inactivated FBS, 0.1 mM MEM non-essential amino acids, 1.2 mM sodium pyruvate, 24 mM HEPES, with penicillin and streptomycin. MDA 231, a breast cancer cell line, RPMI 8226, a myeloma cell line, its resistant sub-line 8226/Dox40, NCI-H69, a small lung cancer cell line, its resistant sub-line H69AR, ACHN, a primary resistant renal adenocarcinoma, the ovarian carcinoma cell line A2780, and its resistant sub-line, A2780-Cis, are all grown in RPMI-1640 with 10% heat-inactivated FCS, 2 mM glutamine, penicillin and streptomycin. hTERT-RPE1 a normal epithelial telomerase immortalized line is grown in DMEM nutrient mixture F-12 Ham with 10% heat-inactivated FCS, 2 mM glutamine, penicillin and streptomycin. Tumor cells obtained from 3 ovarian carcinoma patients (OC1-OC3) after ethical approval (Uppsala University ethical committee) are isolated by collagenase dispersion and Percoll density gradient centrifugation (GE Healthcare Life Sciences, Uppsala, Sweden) (see Csoka et al, Gynecol. Oncol., 54(2):163-70 (1994)). […] For experiments, frozen cells are thawed, washed twice and kept in RPMI 1640.
(§2) Microtitre plates (Nunc, Roskilde, Denmark) are prepared with 20 μl/well of drug solution 10 times the desired concentration. To evaluate the cytotoxic activity, the drug plates are seeded with 2×10^4 cells/180 μl/well. A column without drugs serves as a control, and a column with medium serves as a blank FMCA is based on measurements of fluorescence generated from hydrolysis of fluorescein diacetate (FDA) to fluorescein by cells with intact plasma membrane (see Larsson et al, Int. J. Cancer, 50(2):177-85 (1992)). The plates are incubated at 37° C. for 72 hr, washed in PBS, whereafter FDA (dissolved in PBS, 10 μg/ml) is added at 100 μl/well. Plates are then incubated for 50 min, and fluorescence/well is measured at 538 nm in a scanning fluorometer (Fluoroscan II, Labsystems Oy, Helsinki, Finland). Fluorescence is proportional to the number of viable cells/well. Quality criteria for successful analysis includes a fluorescence signal in control wells of more than 5 times mean blank value and a mean coefficient of variation in control wells of less than 30%. Experiments were repeated 3 times.
(§3) FMCA data is processed by GraphPad Prism (GraphPad Software, Inc. San Diego, Calif.) with non-linear regression to a standard sigmoidal dose-response model. Zero and 100% cell survival are set as the maximum effect and the baseline, and IC50 (inhibitory concentration 50%) is estimated. For drugs not resulting in 50% reduction of cell survival, the IC50 was set to>the highest concentration tested.

Data set [2] concerns A2780 ovarian carcinoma cell line. The description is as above. Type of data set: cell-based, human. Conditions: A2780, FMCA 72 hr, highest concentration tested 10 μM; read-out: IC50 (95% confidence interval). On the procedure:
as §1, §2, §3

For data set [3], the system named is 8226/dox40 resistant myeloma sub-line. The data set is described as above. The data set is classed as cell-based, human. As to conditions: 8226/dox40, FMCA 72 hr, cisplatin concentration; read-out: IC50 (95% confidence interval). The protocol:
as §1, §2, §3

Data set [4] concerns A2780cis resistant ovarian carcinoma sub-line. The data set is described as above. Type of data set: cell-based, human. As to conditions: FMCA 72 hr, highest concentration tested 10 μM, read-out: IC50 (95% confidence interval). On the procedure: as §1, §2, §3
The subject of data set [5] is H69AR resistant small-cell lung cancer sub-line. The description is as above. As to conditions: FMCA 72 hr, cisplatin concentration, read-out: IC50 (95% confidence interval). The data set is classed as cell-based, human. The protocol: as §1, §2, §3
For data set [6], the system named is ACHN renal adenocarcinoma cell line. Described as above. The data set is classed as cell-based, human. As to conditions: FMCA 72 hr, cisplatin concentration, read-out: IC50 (95% confidence interval). On the procedure: as §1, §2, §3
In data set [7] the test system is NCI-H69 small-cell lung cancer cell line. The description is as above. Type of data set: cell-based, human. Conditions: NCI-H69, FMCA 72 hr, highest concentration tested 10 μM; read-out: IC50 (95% confidence interval). On the procedure:
as §1, §2, §3

Data set [8] concerns FaDu head and neck squamous cell carcinoma cell line. Described as above. As to conditions: FMCA 72 hr, cisplatin concentration, read-out: IC50 (95% confidence interval). The data set is classed as cell-based, human. The protocol: as §1, §2, §3
Data set [9] concerns RPMI 8226/S myeloma cell line. The data set is described as above. The data set is classed as cell-based, human. As to conditions: FMCA 72 hr, cisplatin concentration, read-out: IC50 (95% confidence interval). The protocol: as §1, §2, §3
Data set [10] concerns h-TERT-RPE1 normal epithelial telomerase immortalized cell line. The description is as above. The data set is classed as cell-based, human. Conditions: h-TERT-RPE1, FMCA 72 hr, highest concentration tested 10 μM; read-out: IC50 (95% confidence interval).
Description: Microtitre plates (Nunc, Roskilde, Denmark) are prepared with 20 μl/well of drug solution 10 times the desired concentration. […] Fluorescence is proportional to the number of viable cells/well. Quality criteria for successful analysis includes a fluorescence signal in control wells of more than 5 times mean blank value and a mean coefficient of variation in control wells of less than 30%. Experiments were repeated 3 times.
The subject of data set [11] is FaDu-cells s.c. in SCID-mice. As to the kind of experiment: In vivo tumor reduction assay. The arrangement: species or system mouse. An excerpt:
Mice are palpated and weighed 3 times/week, and euthanized if the tumor diameter exceeded 10 mm or if weight decreased below 80% of starting weight, according to ethical guidelines.

The test system of data set [12] is RHCC-specific antibodies in Balb/c-mice. Kind of data set: ELISA of antibody response to RHCC in sera. Type of data set: in vivo, mouse. Conditions: 14 days after i.v. 0.4 or 0.2 mg RHCC. The protocol:
The antibody response to RHCC in sera from Balb/c-mice collected 14 days after i.v. injection of 0.4 or 0.2 mg RHCC (2 mice/group), or 0.1 M NaCl (one mouse), is measured by ELISA. Microtitre plates (BD Biosciences, San Diego, Calif., USA) are coated with 5 μg/ml RHCC in 0.1 M carbonate-buffer pH 9.6 per well o.n. at 4° C. Plates are blocked in blocking solution (5% milk powder, 0.2% Tween in PBS) for 1 hr at room temperature. Serial dilutions of mouse sera in blocking solution (1:50-1:1350) is added in duplicates to the wells. After 1 hr at room temperature, plates are washed and incubated with secondary alkaline phosphatase (AP) conjugated goat-anti mouse IgG antibody (Sigma-Aldrich, Stockholm, Sweden). Plates are washed and developed with nitrophenylphosphate (pNPP) (Sigma-Aldrich, Stockholm, Sweden) and absorbance is measured at 405 nm in a VersaMax microplate reader (Molecular Devices, Sunnyvale, Calif., USA).

For data set [13], the system named is IFNγ-secreting splenocytes of Balb/c-mice. As to the kind of experiment: IFN-γ EliSpot assay of splenocytes after RHCC injection. Conditions: 7 days after i.v. 0.4 or 0.2 mg RHCC.
For data set [14] the following is noted: background statement; cited from earlier work.
The next data set relates to Balb/c mice. Kind of data set: Tolerability in mice after RHCC injection. As to conditions: after injection with endotoxin purified RHCC.
The test system of data set [15] is primary human tumor cells from ovarian carcinoma patients (OC1-OC3). As to the kind of experiment: FMCA in primary human tumor cells. Type of data set: cell-based. Conditions: cell lines and patient samples tested. The protocol: (§4) FaDu is grown in DMEM and 10% heat-inactivated FBS, 0.1 mM MEM non-essential amino acids, 1.2 mM sodium pyruvate, 24 mM HEPES, with penicillin and streptomycin. […]
as §2, with “To evaluate the cytotoxic activity, the drug plates are seeded with 2×10^4 cells/180 μl/well.” left out, “The plates are incubated at 37° C. for 72 hr, washed in PBS, whereafter FDA (dissolved in PBS, 10 μg/ml) is added at 100 μl/well.” left out, “Experiments were repeated 3 times.” left out

For another data set, the system named is 10 cell lines. Kind of data set: FMCA, statements over the panel of cell lines. As to conditions: tested concentrations, starting at 3.48 μM, all cell types. Type of data set: cell-based, human. The protocol: as §4
as §2, with “To evaluate the cytotoxic activity, the drug plates are seeded with 2×10^4 cells/180 μl/well.” left out, “The plates are incubated at 37° C. for 72 hr, washed in PBS, whereafter FDA (dissolved in PBS, 10 μg/ml) is added at 100 μl/well.” left out, “Experiments were repeated 3 times.” left out

The next data set concerns murine dendritic cells. Kind of data set: Dendritic cell (DC) maturation assay. Type of data set: cell-based, mouse. Conditions: 50 μg/ml RHCC, 24 hr, vs unstimulated cells. On the procedure: Murine bone marrow-derived dendritic cells (BMDCs) are generated according to Lutz et al, J. Immunol. Methods, 223(1):77-92 (1999), and murine splenic DCs are purified using CD11c (N418) MicroBeads (Miltenyi Biotec, Auburn, Calif., USA) according to the manufacturer. DCs are seeded in 24-well plates (BD Biosciences, San Diego, Calif., USA) at 10^6 cells/ml in R10 medium and mixed with 50 μg/ml RHCC. LPS 1 μg/ml (Sigma-Aldrich, Stockholm, Sweden) is used as positive control. After 24 hr stimulation, DCs are stained with PE-conjugated antibodies to CD40, CD80 and CD86 and FITC-conjugated antibody to MHC Class II I-Ab (BD Biosciences Pharmingen, San Diego, Calif., USA) 30 min at 4° C., washed twice in PBS with 0.1% BSA and analyzed by flow cytometry. IL-12 production is analyzed by ELISA according to the manufacturer (Mabtech, Nacka, Sweden). Plates are coated with 2 μg/ml of anti-IL-12 capture antibody o.n, then after blocking, 100 μl of BMDC culture supernatants are added at dilutions 1:1-1:128 for 2 hr at RT. Plates are thereafter incubated with biotinylated anti-IL-12 antibody 1 hr at room temperature, and the response is visualized as above for ELISA.

As for `N.N.[Cl][Pt][Cl]` [Cisplatin, Cis-diammine-dichloroplatinum (II)], the pIC50 was less than 5.00 in data set [1]; less than 5.00 in data set [2]; less than 5.00 in data set [3]; less than 5.00 in data set [4]; 5.07 in data set [5]; 5.16 in data set [6]. Further, the pIC50 in data set [7] is less than 5.00; in [8], 5.10; in [9], 5.13; in data set [10] it was less than 5.00. For the same molecule, in data set [11] (i.v., during the experiment), the alteration in weight result was “no significant alteration in weight”.
As for “RHCC: Recombinant Right-Handed Coiled-Coil protein tetramer of Tetrabrachion (Staphylothermus marinus), strands of SEQ ID NO:1, purified from endotoxins (GSIINETADDIVYRLTVIIDDRYESLKNLITLRADRLEMIINDNVSTILASI; also: tetramer)”, the “RHCC-specific antibody response (ELISA)” value in data set [12] is reported as “no significant antibody response”. Also, in [13], the “IFNγ-EliSpot T cell response” value is listed as “slight production of specific CD8+ T cells”. Besides, the “temperature at which stable” value in [14] was “over 100 °C”. Besides, the “signs of illness (viability, weight)” value with Balb/c mice was “no signs of illness”. Besides, the “cytotoxic effect of RHCC alone” value in data set [15] is listed as “no cytotoxic effect”. Besides, the “toxicity of RHCC alone” value in the data set with 10 cell lines is “nontoxic”. The “tumor reduction, RHCC alone” value in data set [11] (0.675 mg RHCC, separate experiment) is “no effect on tumor reduction”. Besides, in the data set on murine dendritic cells, the CD40 expression entry is reported as “weak increase”; the IL-12 production entry is on record as “weak increase”; the “maturation markers CD80, CD86 and MHC Class II” value was “no increase”.

Values taken from patent US20110300234A1, “Methods of Treating Tumor Cells Using RHCC Protein, Fragment or Variant” (priority 2008, published 2011).
